According to patent US12233073B2, “Skin care formulations and skin cancer treatment” (Regents of the University of Minnesota, priority 2017, dated 2025):
Like-named read-outs stand apart in the source and are kept apart here.

Legend:
[1] = system: SSL-induced skin tumors in SKH-1 hairless mice; details: for % Mortality/Number of dead mice / Total/Average volume of tumors / Total/Avg. no. of tumors: no SSL exposure
Procedure: The effectiveness of different candidate compounds in preventing sUV-induced cancer was evaluated. SKH-1 hairless mice (Charles River, Burlington, Massachusetts) were treated with formulations including one or more candidate compounds and exposed to SSL (solar simulated light). Female mice aged 5-6 weeks at the beginning of the study were used. The mice were exposed to SSL three times a week for 15 weeks from the beginning of the study. At week 1, the SSL dose included 37 kJ/m^2 UVA and 1.8 kJ/m^2 UVB three times per week. […] At week 6, the dose included 60 kJ/m^2 UVA and 2.9 kJ/m^2 UVB and this dose was maintained until week 15 at which time SSL exposure was stopped. Each mouse received a topical application (on the dorsal skin surface posterior to the base of the neck and anterior to the base of the tail) of one or more candidate compounds in a base cream one hour before SSL exposure. 15 weeks onwards, the mice were no longer exposed to SSL but the topical application of cream with sunscreen compounds was continued until 30 weeks. Control mice received topical application of cream with sunscreen compounds but no SSL.
Tumors were counted by sight. The dimensions of each tumor were measured using a digital caliper. Tumor volume (mm^3) was determined as (length×width^2)×0.52, where the length and width were measured in mm. […] Average or total tumor volumes were compared between vehicle (cream)-treated mice exposed to SSL and compound in cream-treated mice exposed to SSL.

[2] = system: skin of SKH-1 hairless mice; assay: H&E staining of skin of mice treated with anti-sUV agents; assay type: in vivo, mouse; details: solar UV-exposed groups G13-G24
Excerpt: FIG. 40 is a photograph comparing H&E (hematoxylin and eosin) stained tissue sample of mice exposed to solar ultraviolet and treated with anti-sUV agents and mice unexposed to solar ultraviolet. H&E staining can show skin damage (see TABLE 5 for group identification). […] None of the compounds in the absence of solar UV caused any damage and none had any adverse effect on skin thickness. G11 and G12 are the positive controls, being groups treated with solar UV without or with vehicle (cream).

[3] = system: antioxidant response element (ARE) pathway; assay: Activation of the antioxidant response element (ARE) pathway; assay type: cell-based; details: for fold induction at 10 µg/mL: final dose 10 μg/ml; for fold induction at 50 µg/mL: final dose 50 μg/ml; for fold induction at 100 µg/mL: final dose 100 μg/ml; for Rating (ARE): third rating in cell
Procedure: (§1) Higher elastin and collagen activity is indicative of anti-wrinkling or anti-aging effects. Activation of the antioxidant response element (ARE) pathway was also evaluated. The NF-E2-related factor (Nrf2) is a critical transcription factor in oxidative stress signaling. Nrf2 binds to the ARE and serves as a master regulator in cellular defense pathways. The ARE pathway mediates the transcriptional induction of a battery of genes that help to protect the cells against oxidative damage. Activation of the ARE promoter leads to more endogenous antioxidants and cell detoxification.

UV-induced ROS = assay: Inhibition of the production of UV-induced reactive oxygen species (ROS); assay type: cell-based; details: read-out: % inhibition of UV-induced ROS
Procedure: The effect of the compounds of EXAMPLE 20 on inhibition of the production of reactive oxygen species (ROS), which can damage skin cells, was evaluated.

collagen 1A = assay: Induction of collagen 1A; assay type: cell-based; details: for fold induction at 10 µg/mL: final dose 10 μg/ml; for fold induction at 50 µg/mL: final dose 50 μg/ml; for fold induction at 100 µg/mL: final dose 100 μg/ml; for Rating (Collagen 1A): second rating in cell
Procedure: as §1

[4] = system: nuclear factor kappa B (NF-κB) pathway; assay: Cell-based assay of the nuclear factor kappa B (NF-κB) pathway; details: for inhibition at 10 µg/mL / inhibition at 50 µg/mL / inhibition at 100 µg/mL: read-out: % inhibition of NF-κB
Procedure: The effect of adding anti-aging and/or anti-wrinkling compounds to the skin care formulation of EXAMPLE 18 on nuclear factor kappa B (NF-κB) mediated-inflammation was evaluated.
A cell-based assay was performed to determine the effective of each of these compounds. The assay involved the effect of each compound on the nuclear factor kappa B (NF-κB) pathway. The inhibition of NF-κB is indicative of a protective effect against aging and wrinkling.

elastin = assay: Induction of elastin; assay type: cell-based; details: for fold induction at 10 µg/mL: final dose 10 μg/ml; for fold induction at 50 µg/mL: final dose 50 μg/ml; for fold induction at 100 µg/mL: final dose 100 μg/ml
Procedure: as §1

[5] = SSL-exposed, compound in cream, percent per TABLE 5
[6] = SSL-exposed, compound in cream, percent per TABLE 5, 15 mice
[7] = female, SKH-1 hairless, mouse, in vivo, 30 weeks
[8] = compound in cream, percent per TABLE 5

Compound | % Effective Protection (% reduction in tumor volume vs SSL with cream only) [1, 5] | % Mice with tumor [1, 6] | % Mortality [1, 6] | Average volume of tumors [1, 6] | Avg. no. of tumors [1, 6] | Number of dead mice [1, 6] | Total no. of tumors [1, 6] | Total volume of tumors [1, 6] | % Mice with tumor [1, 7] | % Mortality/Number of dead mice [1, 8] | Total/Average volume of tumors [1, 8] | Total/Avg. no. of tumors [1, 8] | H&E staining: epidermal thickening and skin damage [2] | fold induction at 10 µg/mL [3] | fold induction at 50 µg/mL [3] | fold induction at 100 µg/mL [3] | Rating (ARE) [3] | fold induction at 10 µg/mL (collagen 1A) | fold induction at 50 µg/mL (collagen 1A) | fold induction at 100 µg/mL (collagen 1A) | further results
CCCCC(CC)COC(=O)C(C#N)=C(c1ccccc1)c1ccccc1 (stereo not shown) [Octocrylene] | 90.3% | 66.7% | 0/0% | 16.5 mm^3 | 1.7 | 0/0 | 25 | 246.7 mm^3 | 0% | 0 | 0 | 0 | epidermal thickening and skin damage | – | – | – | – | – | – | – | –
Titanium dioxide | 89.2% | 100% | 13.3% | 18.4 mm^3 | 2.6 | 2 | 39 | 275.6 mm^3 | – | 0 | 0 | 0 | epidermal thickening and skin damage | – | – | – | – | – | – | – | % Mice with tumor ([1]; mouse, in vivo): 0%
CCCCC(CC)COC(=O)C=Cc1ccc(OC)cc1 (stereo not shown) [Octinoxate] | 93.9% | 80% | 13.3% | 10.4 mm^3 | 1.4 | 2 | 21 | 156.02 mm^3 | 0% | 0 | 0 | 0 | epidermal thickening but less damage | – | – | – | – | – | – | – | –
COc1ccc(C(=O)c2ccccc2)c(O)c1 [Oxybenzone] | 91.2% | 86.7% | 6.7% | 14.3 mm^3 | 2.3 | 1 | 35 | 213.7 mm^3 | 0% | 0 | 0 | 0 | epidermal thickening but less damage | – | – | – | – | – | – | – | –
C=CCc1ccc(O)c(-c2cc(CC=C)ccc2O)c1 [HI-3, magnolol] | – | – | – | – | – | – | – | – | – | – | – | – | – | < 1.3 | < 1.3 | < 1.3 | none | < 1.3 | < 1.3 | < 1.3 | inhibition at 10 µg/mL (UV-induced ROS): ~10%; Rating (Collagen 1A) (collagen 1A): none; Cytotoxicity remark in Rating column ([4]; NF-κB cell-based assay): slightly cytotoxic; Rating (inhibition of NF-κB) ([4]; one rating per compound): **** (very high activity (>76%)); inhibition at 10 µg/mL [4]: > 90%; inhibition at 50 µg/mL [4]: > 90%; inhibition at 100 µg/mL [4]: > 90%; fold induction at 10 µg/mL (elastin): < 1.3; fold induction at 50 µg/mL (elastin): 4; fold induction at 100 µg/mL (elastin): 2.8; Rating (Elastin) (elastin; first rating in cell): none
COc1cc(-c2oc3cc(O)cc(O)c3c(=O)c2O)ccc1O [HI-10, isorhamnetin] | – | – | – | – | – | – | – | – | – | – | – | – | – | 2 | < 1.3 | < 1.3 | **** (very high activity (>76%)) | 1.4 | < 1.3 | < 1.3 | inhibition at 10 µg/mL (UV-induced ROS; final dose 10 μg/ml): ~50%; Rating (Collagen 1A) (collagen 1A): ** (medium activity (31-55%)); inhibition at 10 µg/mL [4]: 45%; inhibition at 50 µg/mL [4]: 52%; inhibition at 100 µg/mL [4]: 43%; fold induction at 10 µg/mL (elastin): 1.7; fold induction at 50 µg/mL (elastin): 1.8; fold induction at 100 µg/mL (elastin): 4
